According to patent US20130197073A1, “HYPOCHOLESTEROLEMIC, ANTI-INFLAMMATORY AND ANTIEPILEPTIC NEUROPROTECTIVE COMPOUND” (NEURON BIOPHARMA, S.A., priority 2010, published 2013):
Like-named read-outs stand apart in the source and are kept apart here.

Key:
[1] = test system: zebrafish (Danio rerio, AB strain) embryos; details: in vivo
Method: The study of this parameter (cardiotoxicity) not only determines the heart rate of the animals but also it allows determining heart beat alterations (tachycardia, bradycardia, etc.) or heart development anomalies (pericarditis, atrophy, hypertrophy, etc.).
The determination of the heart rate of the zebrafish embryos or larvae is performed visually. The heart beat (with the help of a manual counter) is counted for a period of 15 seconds by means of a magnifying glass (magnifications of 4-40×). The heartbeat of 12 of the 30 animals used per treatment in total is counted. The number of beats obtained is multiplied by 4 to obtain the number of heart beats per minute of the animal.

[2] = test system: human neuroblastoma SK-N-MC cells; test: Protection against neuronal death induced by tunicamycin (endoplasmic reticulum stress), WST-1; assay type: cell-based; details: NST0060 at 4 μM; 24 μM tunicamycin, 22 hours; significant from 1 to 40 μM
Method: (§1) The assay was performed on human neuroblastoma SK-N-MC cells in culture, maintained as described in section 2.1.
The inhibition caused by compound NST0060 with respect to cell death caused by treatment with tunicamycin generating endoplasmic reticulum stress was analyzed. Tunicamycin is an inhibitor of protein N-glycosylation, causing abnormal protein folding in the endoplasmic reticulum, therefore said proteins are accumulated and cause stress, resulting in cell death. These cells, not exceeding 15 passages, were seeded on 96-well plates treated for adherent cells with a cell concentration of 5×10^4 cells/well; 3 wells of the plate were seeded for each assay condition.
After 24 hours of cell incubation (at 37° C. and 5% CO2), the cell treatments were performed with 100 μl of total volume for the following conditions: • Control: culture medium (medium) • Tunicamycin (TM): medium plus 24 μM tunicamycin, causing death of 50% of the cells. • TM plus NST0060: medium plus TM (24 μM) plus NST0060 at 1, 4, 10, 40 or 100 μM
The cells were incubated (at 37° C. and 5% CO2) with these treatments for 22 hours, after which time WST-1 reagent (Roche) was added. The WST-1 test is based on the measurement of metabolic activity (method described in section 2.1).

IL-1β = test: LPS model of systemic shock in mice, plasma IL-1β; assay type: in vivo; details: two i.p. doses of 50 mg/kg; 2 hours post-LPS
Method: To that end an additional assay was carried out in which all the animals included were 12-week old male C57BL6 mice. The experiments were carried out strictly complying with the standard entitled Guidance on the Operation of Animals (Scientific Procedures, Act. 1986). The animals were subjected to their respective quarantine period and were treated with maximum precaution to minimize possible contaminations during treatments and handling.
The mice were split up into three experimental groups: control group (n=8); control+LPS group (n=16); NST0060+LPS group (n=16). The mice were i.p. administered two doses of 50 mg/kg of NST0060 (in its lactone form) spaced out 12 hours from one another. 0.5% methyl cellulose in physiological saline, which was administered to the mice in the control groups with the same administration regimen, was used as a vehicle. Peripheral systemic inflammation was induced one hour after the last treatment by means of a single i.p. injection of LPS at 8 mg/kg. Half the mice in which systemic shock was induced (8 animals from the control+LPS group and 8 animals from the NST0060+LPS group) were sacrificed 2 hours after the inoculation of the LPS. Blood was taken and plasma was obtained, and both were frozen. […] The concentration of the inflammatory cytokines TNFα and IL-1β was evaluated in the plasma obtained by means of ELISA.

[3] = test system: human hepatocarcinoma line HepG2; test: Intracellular total cholesterol levels in human hepatic cell line; assay type: cell-based; details: HepG2, active form, 20 hours in the absence of FBS
Method: To that end an assay was conducted which had the purpose of determining if compound NST0060 in its active form was capable of modifying total cholesterol levels in the human hepatocarcinoma line HepG2. […] To carry out this assay, the compounds were prepared at 10 mM in ultrapure water and were activated by means of 0.1 N NaOH for 12 hours at 4° C. The compounds were stored at −20° C. until they were used.
The HepG2 line was obtained from the American Type Culture Collection (ATCC). The cells maintained in passage were seeded in 96-well plates (4×10^4 cells/well) in MEM supplemented with 10% FBS, 2 mM L-glutamine, 1 mM sodium pyruvate, 0.1 mM non-essential amino acids and 0.05 mg/mL gentamicin. After 24 hours of the seeding, the cells were deprived of FBS for 8 hours. The cells were then incubated with the treatments at various concentrations for 20 hours. After the incubation period, the cells were washed with PBS and lysed with a phosphate buffer with 0.5% Triton X-100. The lysis was completed by means of a double freezing-thawing.
The total cholesterol was quantified by means of enzymatic and fluorometric techniques. […] The fluorescence intensity was determined at 530 nm of excitation and 580 nm of emission by means of a fluorometer. The results were standardized by amount of protein, which was determined by means of the BCA technique.

caspase 3/7 = test: Inhibition of activation of caspase 3/7 in camptothecin cell model of apoptosis; assay type: cell-based, human; details: Homo sapiens, 50 μM CPT 6 hours, read-out: inhibition of caspase 3/7 with respect to camptothecin
Method: as §1
The induction of apoptosis on the cells in culture was performed with camptothecin (CPT), which triggers the activation of cell apoptosis. Apoptosis was quantified by means of the measurement of the activation of effector caspases, caspase 3 or caspase 7, for which a kit for the fluorometric detection of active caspase 3/7 (Apo-ONE® Homogeneous Caspase-3/7, Promega) was used. Active caspases 3 or 7 of the cells cause the rupture of a substrate, which leads to fluorescence emission, which is read by means of a fluorometer. The effect of the pretreatment of compound NST0060 at 10 and 40 μM on the activation of caspase 3/7 produced by 50 μM of camptothecin (CPT) in the SK-N-MC cells was thus analyzed. These cells, not exceeding 15 passages, were seeded on 96-well plates treated for adherent cells with a cell concentration of 5×10^4 cells/well; 3 wells of the plate were seeded for each assay condition.
After 24 hours of cell incubation (at 37° C. and 5% CO2), the pretreatment with NST0060 at 10 and 40 μM was performed.
The cells were incubated (at 37° C. and 5% CO2) with these treatments for 6 hours, after which cell lysis buffer and the caspase substrate at the concentrations specified by the manufacturer were added; it was incubated at room temperature for 30 minutes and then frozen at −20° C. overnight. Fluorescence was measured the next day (499/521 nm, Exci/Emi).

SMILES: CCCC(CCC)C(=O)O[C@H]1C[C@@H](C)C=C2C=C[C@H](C)[C@H](CC[C@@H]3C[C@@H](O)CC(=O)O3)[C@H]21 [NST0060, 2-propylpentanoic acid (1S,3R,7S,8S,8aR)-1,2,3,7,8,8a-hexahydro-3,7-dimethyl-8-[2-[(2R,4R)-tetrahydro-4-hydroxy-6-oxo-2H-pyran-2-yl]ethyl]-1-naphthalenyl ester]
- heart rate with respect to the controls ([1]; AB, zebrafish (Danio rerio), 3 mg/kg, 72 h): not at the dose of 3 mg/Kg
- heart rate with respect to the controls ([1]; 10 mg/kg): decrease of the heart rate is detected
- protection against cell death caused by TM [2]: 42%
- cytokine IL-1β plasma levels (IL-1β): statistically significant decrease in cytokine IL-18 plasma levels
- reduction in total cholesterol in the cells [3]: reductions in total cholesterol in the cells similar to those exerted by simvastatin
- inhibition at 10 µM (caspase 3/7; pretreatment 24 h at 10 μM): 58%
- inhibition at 40 µM (caspase 3/7; pretreatment 24 h at 40 μM): 32%
